From US10028992B2, “Methods of treating muscular dystrophy” (BOARD OF REGENTS OF THE NEVADA SYSTEM OF HIGHER EDUCATION …, priority 2012, dated 2018)

Tested on: α7 integrin promoter
Assay: muscle cell-based assay: α7βgal+/− myoblasts/myotubes, LacZ reporter, β-galactosidase cleavage of FDG
Parameters: species or system mouse
Conditions: Myotubes; for Results in a α7+/− β-galactosidase assay, Myotubes, 0.5 uM: compound at 0.5 uM; for Results in a α7+/− β-galactosidase assay, Myotubes, 1 uM: compound at 1 uM; for Results in a α7+/− β-galactosidase assay, Myotubes, 5 uM: compound at 5 uM; for Results in a α7+/− β-galactosidase assay, Myotubes, 10 uM: compound at 10 uM; for Results in a α7+/− β-galactosidase assay, Myotubes, 20 uM: compound at 20 uM; for Results in a α7+/− β-galactosidase assay, Myotubes, 40 uM: compound at 40 uM
In short: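 Primary α7βgal+/− mouse myoblasts (LacZ knocked into α7 integrin exon 1, promoter retained), differentiated; promoter activity read as β-galactosidase conversion of non-fluorescent FDG to fluorescein. Hits followed by dose-response, western analysis and myostatin counterscreen.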

Compound	Results in a α7+/− β-galactosidase assay, Myotubes, 0.5 uM	Results in a α7+/− β-galactosidase assay, Myotubes, 1 uM	Results in a α7+/− β-galactosidase assay, Myotubes, 5 uM	Results in a α7+/− β-galactosidase assay, Myotubes, 10 uM	Results in a α7+/− β-galactosidase assay, Myotubes, 20 uM	Results in a α7+/− β-galactosidase assay, Myotubes, 40 uM
CC(C)Oc1cccc(C(=O)Nc2ccc(CN3CCOCC3)cc2)c1 [drawing 355]	−0.02164	−0.1398	0.1741	0.1947	−0.2357	−0.1159
Cc1ccc(/C=C2\C(=O)Nc3ccccc32)o1 [drawing 356]	0.09656	−0.02249	−0.1043	−0.06876	−0.2369	−0.336
O=c1[nH]c(CN2CCCCC2)cc2c1C1(CCCCC1)Cc1ccccc1-2 [drawing 357]	0.1087	0.1264	−0.08739	−0.0441	−0.09507	−0.1888
COc1ccccc1NS(=O)(=O)c1cc(NC(=O)c2ccc(Cl)nc2)ccc1N1CCCC1 [drawing 358]	0.1418	0.2243	0.0609	0.2352	−0.07572	−0.1492
N#C/C(=C1/C(=O)Nc2ccc(Br)cc21)c1ccccn1 [drawing 359]	0.2651	0.03214	−0.1525	−0.1528	−0.2624	−0.2931
N#CC1=C2SCN(c3ccccc3)CN2C(=O)CC1c1cccs1 (stereo not drawn) [drawing 360]	0.09082	0.1158	−0.0988	−0.03259	−0.2578	−0.3783
COc1ccc(C(=O)/C=C2\C(=O)Nc3ccccc32)cc1 [drawing 361]	0.1208	0.06821	−0.04505	−0.256	−0.3122	−0.5124
O=C(O)c1csc(-c2cccs2)n1 [drawing 362]	0.2703	0.2837	0.2451	−0.02819	−0.1366	−0.1007
COc1cccc(C(=O)COc2ccc3ccc(=O)oc3c2)c1 [drawing 363]	0.3069	0.2317	0.07669	0.03997	−0.3325	−0.3127
CCCS(=O)(=O)c1nc(S(=O)(=O)c2ccc(C)cc2)c(N2CCCC2)s1 [drawing 364]	0.01021	0.05992	−0.01197	−0.0108	−0.2345	−0.3321
